# Patent US9364454B2, “Anti-inflammatory actions of neuroprotectin D1/protectin D1 and its natural stereoisomers” (The Brigham and Women's Hospital, Inc., priority 2005, dated 2016)
# Entries after “also recorded” stand apart in the source; their conditions may differ. Read-outs that look alike come from different tables or passages of the source.
# How the values were obtained:
# [1] = system: male FvB mice; test: PD1 given after aeroallergen challenge (days 18-20), BAL on day 21; type: in vivo, mouse
# Description: In select experiments, animals were sensitized and aeroallergen challenged for four days prior to receiving PD1 (20 ng) or PBS by intravenous injection (0.1 ml) on days 18, 19 and 20. On day 21, bilateral BAL was performed.
# Murine lungs were fixed in 10% buffered formalin and paraffin embedded for hematoxylin and eosin and periodic acid Schiff staining (Sigma Chemical Co.). Tissue morphometry was performed by a member (K. Haley) of the Lung Histopathology Core Laboratory at Brigham and Women's Hospital who was blinded to the experimental conditions prior to histological analyses. Three fields per slide were examined at 200× magnification for vessels, large airways and alveoli with EOS counted at 400× magnification in randomly assigned fields. Vessels were identified by perivascular smooth muscle, and large airways were identified by at least ½ their diameter either cuboidal or columnar epithelia. Measurement of inflammatory mediators was determined in cell-free BAL fluid (BALF) (2000 g, 10 min) by sensitive and specific ELISAs, in tandem, for interleukin-5 (IL-5), IL-12, IL-13, PGD2 (R&D Systems), cysteinyl LTs, (Cayman Chemical Co.), and LXA4 (Neogen). Cells in BALF were resuspended in PBS, enumerated by hemocytometer, and concentrated onto microscope slides by cytocentrifuge (STATspin) (265 g). […]
# [2] = system: human PMN transmigration across endothelial cells; test: Human PMN transmigration across HMEC monolayers, LTB4-induced; type: cell-based
# Description: PMN were freshly isolated from whole blood obtained by venipuncture from healthy human donors (who denied taking medication for 2 weeks prior to donation; BWH protocol no. 88-02642) and anti-coagulated with acid citrate dextrose as in (40, 41). Briefly, plasma and mononuclear cells were removed by aspiration from the buffy coat after centrifugation (400 g; 20 min) at room temperature. Histopaque (density 1.077) was from Sigma-Aldrich (St. Louis, Mo.). RBCs were sedimented using 2% gelatin, and residual RBCs were removed by lysis in ice-cold NH4Cl buffer. The cell suspensions were >90% PMN as determined by light microscopic evaluation. PMN were suspended at 5×10^7 cells/ml in HBSS with 10 mM Hepes, pH 7.4, and without Ca^2+ or Mg^2+ (Sigma-Aldrich, St. Louis, Mo.). PMN were used within 2 hours of their isolation.
# Human Microvascular Endothelial Cells (HMEC; a gift from Francisco Candal of the Centers for Disease Control, Atlanta, Ga.) were obtained as primary cultures. For preparation of experimental HMEC monolayers, confluent endothelial cells were grown on 0.33 cm^2 ring-supported polycarbonate filters (5 μm pore size; Costar Corp., Cambridge, Mass.) in the apical-to-basolateral direction. Cells were grown for ˜1 week prior to transmigration experiments.
# Transmigration was conducted essentially as in ref. (41). PMN were incubated with either vehicle-containing buffer or compound for 15 minutes at 37° C. A chemotactic gradient was established by placing HMEC inserts that had been washed in HBSS with Ca^2+ and Mg^2+ (denoted +/+) in 10^−8M LTB4 in the lower chambers. Neutrophils (10^6 cells) were added to 50 μl HBSS +/+ in the upper chambers and cells were incubated at 37° C. for 90 min. Transmigrated PMN were quantified by assessing the PMN azurophilic marker myeloperoxidase and a calibration curve. PMN were lysed by the addition of Triton X-100 to a final concentration of 0.5%. The samples were acidified with citrate buffer (final concentration 100 mM, pH 4.2). An aliquot of each sample was added to an equal volume of ABTS solution (1 mM ABTS [2′-azino-bis(3-ethylbenzo-thiazoline-6-sulfonic acid)], 0.03% H2O2, 100 mM sodium citrate buffer, pH 4.2) in a 96-well plate. The resulting color was monitored using a plate reader at 405 nm and a calibration curve for cell number.
# [3] = system: male FvB mice; type: in vivo
# Description: (§1) Five to seven week old male FvB mice (Charles River Laboratories) were housed in isolation cages under viral antibody-free conditions. Mice were fed a standard diet (Laboratory Rodent Diet 5001, PMI Nutrition International) that contained no less than 4.5% total fat with 0.26% omega-3 fatty acids and <0.01% C20:4. After Harvard Medical Area IRB approval (Protocol #02570), mice were sensitized with intraperitoneal injections of ovalbumin (OVA) (Grade III; Sigma Chemical Co.) (10 μg) plus 1 mg aluminum hydroxide (ALUM) (J.T. Baker Chemical Co.) as adjuvant in 0.2 ml PBS on days 0 and 7. On days 14, 15, 16 and 17, the mice received PD1 (2, 20 or 200 ng) (a product of biogenic synthesis (52)) or PBS with 1.6 mM CaCl2 and 1.6 mM MgCl2 (0.1 ml) by intravenous injection 30 min prior to an aerosol challenge containing either PBS or 6% OVA for 25 min/day. Matching experiments were performed with 20 ng PD1 prepared by total organic synthesis (62).
# On day 18, 24 h after the last aerosol challenge, either airway responsiveness to aerosolized methacholine (0, 20, 50 and 75 mg, 10 sec) was measured, bilateral bronchoalveolar lavage (BAL) (2 aliquots of 1 ml PBS plus 0.6 mM EDTA) was performed or tissues were harvested for histological analysis. Lung resistance was measured using a Flexivent ventilator (SciReq). Resistance was measured as a function of time for each animal, and peak and average values for each dose of methacholine were recorded. […]
# Murine lungs were fixed in 10% buffered formalin and paraffin embedded for hematoxylin and eosin and periodic acid Schiff staining (Sigma Chemical Co.). […] Three fields per slide were examined at 200× magnification for vessels, large airways and alveoli with EOS counted at 400× magnification in randomly assigned fields. […] Measurement of inflammatory mediators was determined in cell-free BAL fluid (BALF) (2000 g, 10 min) by sensitive and specific ELISAs, in tandem, for interleukin-5 (IL-5), IL-12, IL-13, PGD2 (R&D Systems), cysteinyl LTs, (Cayman Chemical Co.), and LXA4 (Neogen). […]
# [4] = system: male FvB mice; test: Airway responsiveness to aerosolized methacholine in OVA-sensitized/challenged mice; type: in vivo, mouse
# Description: as §1
# On day 18, 24 h after the last aerosol challenge, either airway responsiveness to aerosolized methacholine (0, 20, 50 and 75 mg, 10 sec) was measured, bilateral bronchoalveolar lavage (BAL) (2 aliquots of 1 ml PBS plus 0.6 mM EDTA) was performed or tissues were harvested for histological analysis. Lung resistance was measured using a Flexivent ventilator (SciReq). Resistance was measured as a function of time for each animal, and peak and average values for each dose of methacholine were recorded. No BAL or histological analysis was performed on those animals undergoing airway hyper-responsiveness or lipid extraction studies.
# [5] = system: FVB male mice; test: Acute inflammatory exudates: zymosan A murine peritonitis (leukocyte infiltration); type: in vivo, mouse
# Description: Peritonitis was carried out using 6-8 week-old FVB male mice (Charles River Laboratories) fed laboratory Rodent Diet 5001 (Purina Mills) that were anesthetized with isoflurane, and compounds to be tested were administered intraperitoneally. […] Each compound tested or vehicle alone was suspended in 1 μl ethanol and mixed in sterile saline (120 μl). After intraperitoneal injections (either 2 or 4 hours of acute inflammation), the mice were sacrificed in accordance with the Harvard Medical Area Standing Committee on Animals protocol no. 02570, and peritoneal lavages were collected rapidly and placed in an ice bath (4° C.) for enumeration, differential counts, and further analysis.
# [6] = system: FVB male mice; conditions: cited from earlier work
smiles,measurement,setting,value
"CC/C=C\C[C@H](O)\C=C/C=C/C=C/[C@H](O)C/C=C\C/C=C\CCC(=O)O [PD1, 10R,17S-dihydroxy-docosa-4Z,7Z,11E,13E,15Z,19Z-hexaenoic acid]","numbers of total leukocytes, Eos and Lymphs in BALFs","[1]; 20 ng iv once a day for three days after challenge, day 21",significant decrements
same,resolution of allergic airway inflammation (in words),[1]; PD1 treatment after aeroallergen challenge,has the capacity to accelerate resolution of allergic airway inflammation; also recorded: promoted the resolution of airway inflammation; also recorded: promotes resolution of allergen-driven leukocytes; also recorded: markedly accelerated the resolution of airway inflammation
same,inhibition of PMN transmigration,"[2]; 1.0 nM, in response to leukotriene B4",30%
same,attenuation of human neutrophil transmigration,"[2]; 10 nM, LTB4 10^-8 M, 90 min",~50%
same,reduction of PMN transmigration,"[2]; 10-100 nM, in vitro",35-45%
same,highest degree of inhibition of neutrophil transmigration observed,"[2]; HMEC monolayers, neutrophils from >5 separate donors, each experiment",≤ 50%
same,effect on LTB4-induced PMN transmigration (in words),"[2]; compound 15 min, LTB4 10^-8 M 90 min",reduced PMN transmigration; also recorded: inhibited LTB4-induced PMN migration; also recorded: stereoselectively reduces PMN transmigration in vitro
same,EOS and Lymphs in the peribronchial regions and airspaces (histology),"[3]; 2, 20 or 200 ng i.v., versus vehicle",substantially less EOS and Lymphs
same,EOS tissue infiltration around vessels and in large and peripheral airways (morphometry),[3]; PD1 i.v. prior to challenge,significant decreases
same,EOS trafficking,[3]; as little as 2 ng of PD1,reduced
same,"shape of dose response, protection on airway hyper-responsiveness","[4]; 2, 20, 200 ng",bell-shaped dose response with maximal protection
same,log ED200 for the mean airway resistance,"[4]; 2, 20 and 200 ng, compared with vehicle",significantly increased
same,airway hyper-responsiveness: peak and average lung resistance in response to methacholine,[4]; PD1 0-200 ng i.v. prior to OVA challenge,decreased both peak and average lung resistance; also recorded: dampened; also recorded: reduces airway hyper-responsiveness
same,lung elastance or compliance,[4]; following allergen challenge (data not shown),no significant changes
same,airway responses of control animals that received PBS rather than allergen,"[4]; mouse, in vivo",no significant impact
same,rank order of potency,[5]; 0.1 ng dose,"Compound VI>>PD1>10S,17S-DT (the double dioxygenation product)>the Δ15-trans-PD1>>Compound V"
same,activity on PMN infiltration (in words),[5]; 1 ng/mouse dose,striking inhibition of PMN infiltration
same,PMN infiltration when given after initiation of inflammation (in words),"[5]; 1 ng/mouse i.p. 2 h after zymosan A, lavage at 4 h",diminished infiltration of PMN; also recorded: reduces PMN infiltration; also recorded: reduced PMN infiltration after initiation (2 h) of inflammation
same,inhibition of PMN infiltration,"[5]; 1 ng/mouse, peritonitis",~40%
same,inhibition of PMN infiltration,[5]; 10 ng and 100 ng doses (maintained),~40%
same,kind of joint anti-inflammatory action of PD1 and RvE1,"[5]; 10 ng/mouse i.p. of either or both, 2 h",additive rather than synergistic
same,"PMN infiltration, PD1 and RvE1 administered together (in words)","[5]; 10 ng/mouse i.p., exudates at 2 h",reduced the infiltration of PMN
same,PMN infiltration (in words),"[5]; 10 ng/mouse, 4 h after injection (FIG. 9)",reduced PMN infiltration; also recorded: Statistically different from *zymosan A-injected mice
same,rank order of potency,[5]; 1-10 ng dose,"PD1≈PD1 methyl ester>>Δ15-trans PD1>10S,17S-diHDHA (isomer I)"
same,"anti-inflammatory potency in vivo, PMN infiltration (in words)","[5]; dose range tested (FIG. 6), lavage at 2 h",dramatically reduced the infiltration of PMN into the peritoneum; also recorded: more potent than the dioxygenation product; also recorded: potent regulator of PMN infiltration in vivo
same,blocking of further PMN infiltration,[5]; given 2 h after zymosan A challenge,> 90%
same,recruitment of monocytes and lymphocytes to exudates (in words),"[5]; peritonitis, differential counts",increased the non-phlogistic recruitment of monocytes and lymphocytes; also recorded: regulated both monocyte and lymphocyte traffic
same,inhibition of PMN infiltration,"[6]; 100 ng/mouse, i.v., earlier experiments (ref 1)",~40%
same,"apparent maximal response, reduction of PMN infiltration",[6]; doses as low as 100 ng/mouse (ref 1),~50%
same,potency versus indomethacin in reducing PMN infiltration,"[6]; i.v., earlier experiments (ref 1)",more potent than indomethacin
